Values of other authors as cited in patent US5827842A, “14α, 17α-C2 -bridged norprogesterone derivatives” (Schering Aktiengesellschaft, priority 1994, dated 1998).

Tested on: endometrium

CC(=O)[C@]12CC[C@@]3(CC1)[C@@H]1CCC4=CC(=O)CC[C@@H]4[C@H]1CC[C@]23C [14,17-Ethano-19-norpregn-4-ene-3,20-dione]
factor between subcutaneous and peroral action (J. Med. Chem. 16, 270 (1973)): over 20 | gestagenic action in the Clauberg Test after oral administration (oral administration): only a slight effect | gestagenic action in the Clauberg Test after subcutaneous administration (subcutaneous administration): good effect
